From the NIST ThermoML archive (doi:10.1021/je800345j)
± gives the expanded uncertainty stated by the source.

Key:
[1] = 298.15 K; 101.33 kPa; Liquid
[2] = refractive index (Na D-line) (dimensionless); conditions: 293.15 K; 101.33 kPa; Liquid; Standard Abbe refractometry

| mass density [1] | refractive index [2] | Structure (SMILES) |
| --- | --- | --- |
| 1047.4 ± 0.3 kg/m3 | 1.372 ± 0.0004 | CC(=O)O [acetic acid] |
| 971.9 ± 0.3 kg/m3 | 1.4491 ± 0.0004 | CC(=O)CC(C)=O [2,4-pentanedione] |
| 927.8 ± 0.3 kg/m3 | 1.4033 ± 0.0004 | C=C(C)OC(C)=O [1-methylvinyl ethanoate] |
